Assay results taken from patent US20100286139A1, “AMINO PYRAZOLE COMPOUND” (ELI LILLY AND COMPANY, priority 2008, published 2010).

Target: T1, JAK2 (Homo sapiens, UniProt O60674)
T1 construct: endogenous in cells; host or cells: TF-1 (human erythroid leukemia) cells, EPO-stimulated
Assay: JAK2 EPO-TF1/pSTAT5 cell-based assay (Cellomics ArrayScan HCS)
Conditions: TF-1 cells, EPO 1.6 U/mL stimulated, n=4; read-out: relative IC50, inhibition of pSTAT5
Text: JAK2 EPO-TF1/pSTAT5 cell-based assay mimics the constitutive activation of JAK2-STAT5 in erythroid progenitor cells, which drives the overproduction of red blood cells, a marker of polycythemia vera (PV).
TF-1 (human erythroid leukemia) cells are maintained in RPMI 1640 (RPMI-1640 was developed by Moore et. al. at Roswell Park Memorial Institute. The formulation is based on the RPMI-1630 series of media utilizing a bicarbonate buffering system and alterations in the amounts of amino acids and vitamins.) with 10% fetal bovine serum (FBS), 0.075% sodium bicarbonate, 1 mM sodium pyruvate, 1× antibiotic/antimycotic (Invitrogen, Carlsbad, Calif.) and 0.45% glucose. The medium is supplemented with GM-CSF (granulocyte-macrophage colony-stimulating factor) at a final concentration of 2 ng/mL. Cells are kept at 37° C. with 5% CO2. Cells are starved in serum free medium to remove endogenous growth factors. TF-1 cells are counted and cells are collected to seed 2×10^7 cells per 96-well plate at a density of 2×10^5 cells per well. […]
To perform the assay, serum-starved cells are collected and washed once with unsupplemented RPMI 1640 medium. […] An aliquot of 200 μL of 1 to 10 dilution of Mouse anti-pSTAT5 (pY694) Alexa Fluor 647® in fluorescence activated cell sorting (FACS) buffer is added to the cells. […]

T1 sequence (O60674 whole entry): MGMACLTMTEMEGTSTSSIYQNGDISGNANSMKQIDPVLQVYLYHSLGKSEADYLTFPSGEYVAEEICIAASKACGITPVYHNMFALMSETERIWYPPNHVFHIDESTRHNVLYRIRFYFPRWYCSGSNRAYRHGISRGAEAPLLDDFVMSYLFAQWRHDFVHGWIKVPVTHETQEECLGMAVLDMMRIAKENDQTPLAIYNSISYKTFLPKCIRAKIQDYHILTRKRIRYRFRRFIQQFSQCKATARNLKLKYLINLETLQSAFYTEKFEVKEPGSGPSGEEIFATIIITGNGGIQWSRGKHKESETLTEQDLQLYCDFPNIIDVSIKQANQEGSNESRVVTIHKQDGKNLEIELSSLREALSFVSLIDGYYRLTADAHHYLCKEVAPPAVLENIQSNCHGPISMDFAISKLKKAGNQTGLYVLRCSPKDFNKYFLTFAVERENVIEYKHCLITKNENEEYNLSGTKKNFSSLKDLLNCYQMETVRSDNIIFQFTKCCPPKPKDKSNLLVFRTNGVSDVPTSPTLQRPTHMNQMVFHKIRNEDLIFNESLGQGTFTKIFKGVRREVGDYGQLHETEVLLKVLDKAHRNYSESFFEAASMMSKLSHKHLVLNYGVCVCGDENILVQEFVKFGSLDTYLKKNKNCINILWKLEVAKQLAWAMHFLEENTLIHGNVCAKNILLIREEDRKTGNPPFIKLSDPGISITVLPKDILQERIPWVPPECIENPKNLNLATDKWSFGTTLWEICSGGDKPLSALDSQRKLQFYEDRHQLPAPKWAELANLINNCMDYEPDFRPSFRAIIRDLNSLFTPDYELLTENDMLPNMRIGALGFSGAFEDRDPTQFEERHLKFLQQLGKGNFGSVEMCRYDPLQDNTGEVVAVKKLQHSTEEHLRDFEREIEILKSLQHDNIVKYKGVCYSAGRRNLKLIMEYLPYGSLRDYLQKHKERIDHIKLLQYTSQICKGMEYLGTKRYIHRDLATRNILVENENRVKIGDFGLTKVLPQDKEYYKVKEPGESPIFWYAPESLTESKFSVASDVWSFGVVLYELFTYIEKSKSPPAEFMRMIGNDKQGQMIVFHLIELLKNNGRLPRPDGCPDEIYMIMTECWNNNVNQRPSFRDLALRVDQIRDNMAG

IC50: 33 nM
SMILES: Cc1cc(Nc2cc(CN3CCOCC3)c3nc(C)c(Cc4ccc(Cl)cc4F)n3n2)n[nH]1 [3-(4-Chloro-2-fluorobenzyl)-2-methyl-N-(5-methyl-1H-pyrazol-3-yl)-8-(morpholinomethyl)imidazo[1,2-b]pyridazin-6-amine]
